# Test results taken from paper PMC10407933, “Four of a Kind: A Complete Collection of ADP-Ribosylated Histidine Isosteres Using Cu(I)- and Ru(II)-Catalyzed Click Chemistry” (The Journal of Organic Chemistry, 2023).
# Like-named read-outs stand apart in the source and are kept apart here. Starred links: 1 amine or outer side, 2 acyl side, 3 side chain; linkers in the order of their positions; H or OH if unused. Non-standard residues stand in square brackets, D forms with d. Residues, ends and D or L forms follow the SMILES beside them. X2 = Nc1ncnc2c1ncn2[C@@H]1O[C@H](COP(=O)(O)OP(=O)(O)OC[C@H]2O[C@@H](n3nncc3C[C@H](N[*:1])C(=O)[*:2])[C@H](O)[C@@H]2O)[C@@H](O)[C@H]1O; X1 = Nc1ncnc2c1ncn2[C@@H]1O[C@H](COP(=O)(O)OP(=O)(O)OC[C@H]2O[C@H](n3nncc3C[C@H](N[*:1])C(=O)[*:2])[C@H](O)[C@@H]2O)[C@@H](O)[C@H]1O
# Tests used:
# [1] = 0.1 M NaOH; for additional peaks of identical mass (isomerization) after NaOH treatment: LC-MS
# Method: With all four ADPr-His* conjugates available, we next evaluated their stability under various conditions in a liquid-chromatography mass-spectrometry (LC-MS) based assay. The conditions surveyed (NH2OH, TFA, and NaOH) were selected because of their frequent occurrence in ADP-ribosylome-focused proteomics studies.
# (§1) Samples were extracted at different time points (2, 4, 8, 24, 48, and 169 h) and quenched with TFA prior to LC-MS injection. Peptide degradation was quantified by analyzing the UV-trace (260 nm) using Xcalibur software. […] Enzymatic turnover of the various peptides was assessed by monitoring AMP release directly (NudT16) or converting released ADPr via NudT5 to AMP. AMP was measured using the AMP-Glo assay (Promega). Samples are background corrected and normalized to NudT16 activity.
# Figure S3. UV-trace (260 nm) of the obtained LC-MS spectra after treating β-configured 1,5-disubstituted triazole 24 with 0.1 M NaOH at various time points.
# (1 picture or pasted object on this page, not shown here)
# Figure S6. UV-trace (260 nm) of the obtained LC-MS spectra after treating α-configured 1,5-disubstituted triazole 29 with 0.1 M NaOH at various time points.
# ARH3 = ARH3 (Homo sapiens, UniProt Q9NX46); conditions: 10 μM peptide, 0.5 μM hydrolase, 30 C, AMP-Glo luminescence, normalized to NudT16; for ARH3-mediated hydrolysis of the N-glycosidic linkage: 60 min, 50 mM TrisHCl pH 8, 200 mM NaCl, 10 mM MgCl2, 1 mM DTT, 0.2 μM human NUDT5
# Method: as §1
# [2] = 0 h, quenched with TFA, LC-MS UV-trace 260 nm
# [3] = 2 h, quenched with TFA, LC-MS UV-trace 260 nm
# [4] = 4 h, quenched with TFA, LC-MS UV-trace 260 nm
# [5] = 8 h, quenched with TFA, LC-MS UV-trace 260 nm
# [6] = 24 h, quenched with TFA, LC-MS UV-trace 260 nm
# [7] = 48 h, quenched with TFA, LC-MS UV-trace 260 nm
# [8] = 169 h, quenched with TFA, LC-MS UV-trace 260 nm
# ARH3, sequence (Q9NX46 whole entry): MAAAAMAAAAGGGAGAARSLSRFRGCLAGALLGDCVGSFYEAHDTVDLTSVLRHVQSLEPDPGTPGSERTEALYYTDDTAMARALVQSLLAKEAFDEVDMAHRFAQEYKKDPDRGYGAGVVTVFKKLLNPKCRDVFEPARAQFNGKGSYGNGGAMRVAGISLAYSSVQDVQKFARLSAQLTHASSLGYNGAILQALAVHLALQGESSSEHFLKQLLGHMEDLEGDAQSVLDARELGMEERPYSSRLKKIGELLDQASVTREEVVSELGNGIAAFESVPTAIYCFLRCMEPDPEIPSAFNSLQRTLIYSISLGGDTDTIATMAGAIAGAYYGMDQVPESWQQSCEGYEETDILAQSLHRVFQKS
SMILES,"Accumulated isomers (%) [1, 2] [%]","Intact peptide (%) [1, 2] [%]","Accumulated isomers (%) [1, 3] [%]","Intact peptide (%) [1, 3] [%]","Accumulated isomers (%) [1, 4] [%]","Intact peptide (%) [1, 4] [%]","Accumulated isomers (%) [1, 5] [%]","Intact peptide (%) [1, 5] [%]","Accumulated isomers (%) [1, 6] [%]","Intact peptide (%) [1, 6] [%]","Accumulated isomers (%) [1, 7] [%]","Intact peptide (%) [1, 7] [%]","Accumulated isomers (%) [1, 8] [%]","Intact peptide (%) [1, 8] [%]",ARH3-mediated hydrolysis of the N-glycosidic linkage (ARH3),"conversion by ARH3 (ARH3; within the 1 h reaction, pH 8) [%]",additional peaks of identical mass (isomerization) after NaOH treatment ([1]; 24 h) [%],"original peptide present after NaOH treatment ([1]; after 12 h, time course, quenched with TFA, LC-MS UV-trace 260 nm) [%]"
CC(C)C[C@H](NC(=O)CNC(=O)[C@H](C)NC(=O)CNC(=O)[C@H](Cc1cnnn1[C@H]1O[C@H](COP(=O)(O)OP(=O)(O)OC[C@H]2O[C@@H](n3cnc4c(N)ncnc43)[C@H](O)[C@@H]2O)[C@@H](O)[C@H]1O)NC(=O)[C@H](Cc1ccccc1)NC(=O)[C@@H](N)[C@@H](C)O)C(=O)N[C@H](C(=O)N[C@H](C(=O)N1CCC[C@H]1C(=O)N[C@H](C(=O)N[C@@H](CC(=O)O)C(=O)N[C@@H](CCCCN)C(=O)O)C(C)C)C(C)C)C(C)C [compound 29] (H-TF[X1]GAGLVVPVDK-OH),0,100,26,74,40,60,51,49,61,39,62,38,62,38,capable of hydrolyzing,~50,,
CC(C)C[C@H](NC(=O)CNC(=O)[C@H](C)NC(=O)CNC(=O)[C@H](Cc1cn([C@H]2O[C@H](COP(=O)(O)OP(=O)(O)OC[C@H]3O[C@@H](n4cnc5c(N)ncnc54)[C@H](O)[C@@H]3O)[C@@H](O)[C@H]2O)nn1)NC(=O)[C@H](Cc1ccccc1)NC(=O)[C@@H](N)[C@@H](C)O)C(=O)N[C@H](C(=O)N[C@H](C(=O)N1CCC[C@H]1C(=O)N[C@H](C(=O)N[C@@H](CC(=O)O)C(=O)N[C@@H](CCCCN)C(=O)O)C(C)C)C(C)C)C(C)C [compound 28],,,,,,,,,,,,,,,very weakly,,12,
CC(C)C[C@H](NC(=O)CNC(=O)[C@H](C)NC(=O)CNC(=O)[C@H](Cc1cnnn1[C@@H]1O[C@H](COP(=O)(O)OP(=O)(O)OC[C@H]2O[C@@H](n3cnc4c(N)ncnc43)[C@H](O)[C@@H]2O)[C@@H](O)[C@H]1O)NC(=O)[C@H](Cc1ccccc1)NC(=O)[C@@H](N)[C@@H](C)O)C(=O)N[C@H](C(=O)N[C@H](C(=O)N1CCC[C@H]1C(=O)N[C@H](C(=O)N[C@@H](CC(=O)O)C(=O)N[C@@H](CCCCN)C(=O)O)C(C)C)C(C)C)C(C)C [compound 24] (H-TF[X2]GAGLVVPVDK-OH),0,,39,61,48,,,,,,71,29,71,29,unaffected,,,38
CC(C)C[C@H](NC(=O)CNC(=O)[C@H](C)NC(=O)CNC(=O)[C@H](Cc1cn([C@@H]2O[C@H](COP(=O)(O)OP(=O)(O)OC[C@H]3O[C@@H](n4cnc5c(N)ncnc54)[C@H](O)[C@@H]3O)[C@@H](O)[C@H]2O)nn1)NC(=O)[C@H](Cc1ccccc1)NC(=O)[C@@H](N)[C@@H](C)O)C(=O)N[C@H](C(=O)N[C@H](C(=O)N1CCC[C@H]1C(=O)N[C@H](C(=O)N[C@@H](CC(=O)O)C(=O)N[C@@H](CCCCN)C(=O)O)C(C)C)C(C)C)C(C)C [compound 23],,,,,,,,,,,,,,,unaffected,,5,
